{"source": "patent US9682928B2", "about": "(NeuroPro Therapeutics, Inc., priority 2009, dated 2017)", "key": {"Sprague-Dawley rats": {"test_system": "Sprague-Dawley rats", "test": "Epileptiform activity induced by i.v. kainic acid in urethane-anesthetized rats", "assay_type": "in vivo, rat", "settings": "intravenous, cumulative dose 40-60 mg/kg", "procedure": "Body temperature was monitored using a rectal temperature probe and maintained at 35-37° C. with a heating pad; heart rate (EKG) was continuously monitored. The jugular vein was cannulated on one side for intravenous drug administration. Rats were placed in a Kopf stereotaxic device (with the top of the skull level), and a bipolar stainless-steel microelectrode insulated to 0.5 mm of the tip was inserted to a depth of 0.5-1.2 mm from the cortical surface to record electroencephalographic (EEG) activity in the fronto-parietal cortex. In some experiments, a 2M NaCl-containing pipette was lowered to a depth of 2.5-3.0 mm to record hippocampal EEG. Data were stored on VHS videotape and analyzed off-line.\nFollowing the surgical preparation and electrode placement, animals were allowed to recover for 30 minutes before the experiments were initiated with an injection of kainic acid (10-12 mg/kg i.v.). […] Experiments were terminated with the intravenous administration of urethane. Animal care was in accordance with NIH guidelines and approved by the University of Washington Animal Care Committee."}, "rats [1]": {"test_system": "rats", "test": "Contextual fear conditioning in rats", "assay_type": "in vivo, rat", "settings": "I.V.; furosemide 100 mg/kg, bumetanide 50 mg/kg", "procedure": "Contextual fear conditioning involves pairing an aversive event, in this case moderate foot shock, with a distinctive environment. The strength of the fear memory is assessed using freezing, a species-typical defensive reaction in rats, marked by complete immobility, except for breathing. […] However, if they are allowed to explore the distinctive environment sometime before the immediate shock, they show intense anxiety and fear when placed back into the same environment. By procedurally dividing contextual fear conditioning into two phases, the effects of treatments on memory for the context (specifically a hippocampus based process) from learning the association between context and shock or experiencing the aversiveness of the shock (which depend upon emotional response circuitry including amygdala) were separately studied. […] The experiment employed 24 rats. […] Each rat was again placed into the same environment for 8 min during which time freezing was measured, as an index of Pavlovian conditioned fear. […] Measurement of freezing was accomplished through an overhead video camera connected to the microcomputer and was automatically scored using a specialty piece of software, FreezeFrame (OER Inc., Reston, Va.) Total freezing time was analyzed in a one-way analysis of variance (ANOVA) test, with drug dose as the […] factor."}, "rats [2]": {"test_system": "rats", "test": "Fear potentiated startle (FPS) test in rats", "assay_type": "in vivo, rat", "settings": "i.v.; furosemide 100 mg/kg, bumetanide 70 mg/kg", "procedure": "FPS is a commonly used assessment of therapeutic value of anxiolytic compounds in the rat. Rats received a 30 min period of habituation to the FPS apparatus. 24-hr later baseline startle amplitudes were collected. The rats will be divided into two matched groups based on baseline startle amplitudes. Following baseline startle amplitude collection 20 light/shock pairings were delivered on 2 sessions over 2 consecutive days (i.e., 10 light/shock pairings per day). On the final day, one group of rats received an injection (i.v.) of a bumetanide analog and the other group received vehicle only. Immediately following injections, startle amplitudes were assessed during startle alone trials and startle plus fear (light followed by startle) trials. Fear potentiated startle (light+startle amplitudes minus startle alone amplitudes) was compared between the treatment groups.\nAnimals were trained and tested in four identical stabilimeter devices (Med-Associates). Briefly, each rat was placed in a small Plexiglas cylinder. The floor of each stabilimeter consists of four 6-mm-diameter stainless steel bars spaced 18 mm apart through which shock can be delivered. Cylinder movements result in displacement of an accelerometer where the resultant voltage is proportional to the velocity of the cage displacement. Startle amplitude is defined as the maximum accelerometer voltage that occurs during the first 0.25 sec after the startle stimulus is delivered. The analog output of the accelerometer is amplified, digitized on a scale of 0-4096 units and stored on a microcomputer. Each stabilimeter is enclosed in a ventilated, light-, and sound-attenuating box. All sound level measurements were made with a Precision Sound Level Meter. The noise of a ventilating fan attached to a sidewall of each wooden box produces an overall background noise level of 64 dB. The startle stimulus is a 50 ms burst of white noise (5 ms rise-decay time) generated by a white noise generator. The visual conditioned stimulus used was illumination of a light bulb adjacent to the white noise source. The unconditioned stimulus was a 0.6 mA foot shock with duration of 0.5 sec, generated by four constant-current shockers located outside the chamber. The presentation and sequencing of all stimuli were under the control of the microcomputer.\nFPS procedures consisted of 5 days of testing; during days 1 and 2 baseline startle responses were collected, days 3 and 4 light/shock pairings were delivered, day 5-testing for fear potentiated startle was conducted.\nMatching. On the first two days all rats were placed in the Plexiglas cylinders and 3 min later presented with 30 startle stimuli at a 30 sec interstimulus interval. An intensity of 105 dB was used. […]"}, "primate": {"test_system": "primate", "test": "Acute primate seizure models", "settings": "in vivo", "excerpt": "FIG. 13 depicts epileptiform spikes and bursts generated using software for the automatic quantification epileptiform activity. FIG. 13A depicts after-discharge activity that was elicited by 4 seconds of electrical stimulation to primate sensory cortex. The software developed by Haglund and Hochman (2007) finds the envelope around a burst of spikes and calculates the duration of the burst, the number of spikes within the burst, and the average spike amplitude of all spikes comprising the burst.\nFIG. 13B depicts a typical spike generated by an acute bicuculline focus in primate motor cortex. The bicuculline model generates epileptiform activity that is similar to spontaneous interictal spiking in human subjects. Analysis of the data by the software identifies the time of occurrence of each spike and its peak-to-peak amplitude. This software can automatically process entire data sets consisting of hours of recorded data from multiple traces and generate an output of the data. Statistical analysis of data sets from multiple experiments can then be used to analyze the effects of various treatments (e.g., compounds that suppress epliptiform activity). See Haglund and Hochman (2007) “Imaging of Intrinsic Optical Signals in Primate Cortex during Epileptiform Activity.” Epilepsia 48(Suppl. 4): 65-74; See also Haglund and Hochman (Feb. 23, 2005) J. Neurophysiol. 94: 907-918."}, "human subjects": {"test_system": "human subjects", "settings": "cited from earlier work"}}, "note": "Read-outs that look alike come from different tables or passages of the source."}
{"molecule": "NS(=O)(=O)c1cc(C(=O)O)c(NCc2ccco2)cc1Cl", "note": "[Furosemide]", "values": [{"measurement": "Kainic acid-evoked seizure activity (electrical status epilepticus)", "setting": "Sprague-Dawley rats", "result": "blocked seizure activity"}, {"measurement": "Latency to block of seizure activity", "setting": "Sprague-Dawley rats", "result": "30 to 45", "unit": "min"}, {"measurement": "Freezing vs vehicle alone", "setting": "rats [1]", "result": "significantly less freezing"}, {"measurement": "Difference score on the test day vs vehicle alone", "setting": "rats [2]", "result": "statistically significantly lower difference score"}, {"measurement": "Difference score one week after treatment vs vehicle alone", "setting": "rats [2]", "result": "higher difference score"}, {"measurement": "Suppression of epileptiform activity", "setting": "primate", "result": "suppresses epileptiform activity"}, {"measurement": "Minimum concentration required to block both the after discharges and optical changes", "setting": "rat hippocampal slices", "result": 1.25, "unit": "mM"}, {"measurement": "Latency to block of bursting", "setting": "rat hippocampal slices; 0-Ca2+ experiments, 5 mM furosemide", "result": "15 to 20", "unit": "min"}, {"measurement": "Stimulation-evoked after discharge activity and optical changes", "setting": "rat hippocampal slices; 2.5 mM furosemide, 20 minutes of perfusion", "result": "blocked"}, {"measurement": "Spontaneous bursts in high-K+ (10 mM) medium", "setting": "rat hippocampal slices; 2.5 mM furosemide, after 45 minutes of perfusion", "result": "blocked in a reversible manner"}, {"measurement": "Latency to block of bursting", "setting": "rat hippocampal slices; all other protocols, 2.5 mM furosemide", "result": "20 to 60", "unit": "min"}, {"measurement": "Anticonvulsant resistant bursts after 3 hours of 0-Mg medium", "setting": "rat hippocampal slices; one hour after the addition of furosemide", "result": "blocked"}, {"measurement": "Average reduction in the duration of stimulation-evoked after-discharge activity", "setting": "human subjects; 8 patients", "result": 85, "unit": "%"}, {"measurement": "Average reduction in spiking frequency", "setting": "human subjects; five patients, 20 mg intravenous bolus", "result": "approximately 60%"}, {"measurement": "Mean interspike interval following furosemide treatment", "setting": "human subjects; five patients, 9.6 s prior to furosemide", "result": 21.9, "unit": "s"}, {"measurement": "Patients with complete blockade of after-discharge activity", "setting": "human subjects; of 8 patients", "result": 4, "unit": "patients"}, {"measurement": "Patients with reduction by more than 50% of duration and amplitude of after-discharge activity", "setting": "human subjects; of 8 patients", "result": 4, "unit": "patients"}]}
